In patent publication US20240293424A1, “CARNITINE-PALMITOYL-TRANSFERASE-1 (CPT-1) INHIBITORS FOR USE IN A METHOD OF PREVENTING OR TREATING SEPSIS IN A MAMMALIAN SUBJECT” (2N PHARMA APS, priority 2021, published 2024) one finds IC50, heart rate and pulmonary artery flow data, which are given here for 1 compound.

The test system of one assay is HEK293 cells. Briefly: Fatty acid uptake assay using HEK293 cells. In kind it is cell-based. To be noted: Homo sapiens, racemic mixture, FIG. 1. The protocol:
HEK293 cells were thawed and centrifuged at 400 g in 1 min, whereafter the supernatant was discarded. The cells were resuspended in DMEM+GlutaMax medium (cat #10566016, Invitrogen) containing 10% fetal calf serum (cat #10270-106, Invitrogen) and 1% penicillin/streptomycin (cat #15140-122, Life Technologies). HEK293 cells were seeded into a T25 flask and incubated at 37 degrees Celsius until 80% confluency. When the HEK293 cells reached confluency, cells were counted and seeded in a 96-well plate and with a volume of 10.000 cells/well in medium (as described above) and incubated overnight. Three wells were without cells serving as controls.
The cells were divided into two groups: 1) Example 1, and 2) Untreated. The fatty acid uptake assay (cat #408-100, BioVision) was carried out according to the protocol from BioVision. The only exception to the protocol was that the measurements in the PerkinElmer Multimode Plate Reader Enspire instrument was running overnight.
Statistics was performed in GraphPad Prism version 8.0. Repeated measure two-way ANOVA were conducted as the groups were tested multiple times followed by a multiple comparison Bonferroni post hoc test.

The subject of assay [1] is CLP-induced mouse model of sepsis. Briefly: Cecal ligation and puncture (CLP)-induced mouse model of sepsis. In kind it is in vivo. To be noted: CLP mice, 5 mg/kg p.o. 1 h after onset of CLP, assessed 24 h after CLP. From the text: This study was be carried out on 10-week old, male C57BL/6 mice (n=5-10 per group) (Charles River Laboratories UK Ltd., Kent, UK) weighing 20-30 g kept under standard laboratory conditions. The animals were allowed to acclimatise to laboratory conditions for at least one week before undergoing experiments. Six mice were housed together in ventilated cages lined with absorbent bedding material. Tubes and chewing blocks were placed in all cages for environmental enrichment. All animals were subjected to 12-h light and dark cycles and the temperature was maintained at 19-23° C. All animals had access to a chow diet and water ad libitum. The cages were cleaned approximately every three days, with water being changed daily. […]
Ten-week-old, male C57BL/6 mice were injected with buprenorphine (0.05 mg/kg, i.p.). […] Temperature was monitored via a rectal probe and kept at 37° C. by a homeothermic mat. […] After 24 h, cardiac function was assessed by echocardiography in vivo. […] The organs (heart, lungs, liver, kidney, spleen) and blood was collected for further analysis to quantify organ injury/dysfunction. […]
Cardiac function in mice was assessed by echocardiography in vivo by means of the Vevo 3100 imaging system (VisualSonics, Toronto, Ontario, Canada). […] During echocardiography, the heart rate was recorded, and a rectal thermometer was recorded to measure core body temperature. […]

As usually defined, the IC50 is the concentration needed to halve the response being measured.

Structures are written as SMILES.

Turning to `CC(=O)N1CCC(c2nc(-c3ccncc3)cs2)N(C(=O)COc2ccccc2)CC1` (single isomer, unassigned) [Example 1, 1-(4-acetyl-7-(4-(pyridin-4-yl)thiazol-2-yl)-1,4-diazepan-1-yl)-2-phenoxyethan-1-one], the IC50 with HEK293 cells was found to be 300 nM. Also, the heart rate result in assay [1] (FIG. 2A) is “maintained”. Besides, the pulmonary artery flow result in assay [1] (FIG. 2G) is recorded as “maintained”.
